# Test results reported in patent US20250066310A1, “MULTI-SUBSTITUTED URACIL DERIVATIVE AND PREPARATION METHOD THEREFOR AND APPLICATION THEREOF” (HANGZHOU ADAMERCK PHARMLABS INC., priority 2021, published 2025).
# How the values were obtained:
# [1] = system: rats with focal cerebral ischemia (MCAO)/reperfusion; experiment: Prophylactic administration, cerebral ischemia-reperfusion injury (MCAO/R) in rats; assay type: in vivo; settings: 6 mg/kg tail vein, Mean ± SD, n = 8
# Procedure: Experimental methods: SD rats were randomly divided into 6 groups, set as sham group, model control group, positive control drug ozagrel (6 mg/kg) group, and test drug compound 1-1 high (9 mg/kg), medium (3 mg/kg), and low (1 mg/kg) dose group. The administered groups were preadministered by tail vein injection, and the sham and model control groups were given an equal volume of saline, once a day for 3 consecutive days. Ten minutes after the last administration, the rat MCAO/R model was established, and reperfusion was performed 2 h after ischemia. 24 h after MCAO reperfusion, neurobehavioral scores were performed to determine the neurological function of rats; 2,3,5-triphenyltetrazolium chloride (TTC) staining method was used to determine the rate of cerebral infarction and cerebral water content in rats.
# [2] = system: rats with autologous thrombus and thrombin-induced cerebral ischemic injury; experiment: Ischemic brain injury induced by autologous thrombus and thrombin in rats (i.v., alone or with urokinase); assay type: in vivo, SD rats; settings: n = 10
# Procedure: Experimental Methods: A model of cerebral ischemic injury in SD rats was prepared by embolizing the middle cerebral artery of rats with autologous thrombus and thrombin via the external carotid artery to the internal carotid artery and the rats were randomly divided into 5 groups according to behavioral scores, a sham group (only the external carotid artery was isolated); a model-control group (saline was given to both groups in equal volume); urokinase (5000 U/kg) group; compound 1-1 ([…]) group; with 20 animals in each group (10 for detecting the rate of cerebral infarction, and the other 10 for pathological testing). Each group was administered slowly in the tail vein (1 ml per minute) 2 h after modeling, and the decrease in blood flow was monitored after thrombin injection and 120 min after administration. Neurobehavioral scoring was performed on the rats after 24 h to determine the neurological function of the rats; 2,3,5-triphenyltetrazolium chloride (TTC) staining was used to determine the rate of cerebral infarction and cerebral water content, and hematoxylin-eosin (HE) staining was used to observe the pathological damage of the brain in rats administered with the drug 2 h after cerebral ischemia.
Compound,"Cerebral infarction rate (%) ([1]; 3 days before MCAO/R, 24 h after reperfusion)",behavioral score ([1]; MCAO/R),cerebral water content (%) ([1]; MCAO/R),"Cerebral infarction rate ([2]; 5000 U/kg i.v., TTC staining, mean ± S.D.)","behavioral score ([2]; 5000 U/kg i.v., after 24 h, Mean ± SD)","cerebral water content (%) ([2]; 5000 U/kg i.v., mean ± S.D.)","Percentage decrease two hours after administration (%) ([2]; cerebral blood flow, 5000 U/kg i.v. 2 h after modeling, Mean ± SD)","Percentage decrease after thrombin injection (%) ([2]; cerebral blood flow, before administration, 5000 U/kg group, Mean ± SD)","Pathology Score ([2]; cerebral ischemic areas, 5000 U/kg i.v., mean ± SD)"
"O=C(O)/C=C/c1ccc(Cn2ccnc2)cc1 [Ozagrel, ozagrel, reference compound]",17.07 ± 10.69,1.50 ± 0.76,81.00 ± 0.98,,,,,,
Urokinase,,,,9.72 ± 9.89,1.60 ± 0.70,79.78 ± 0.72,37.12 ± 4.49,50.10 ± 7.94,1.75 ± 0.86
